{
  "source": "the NIST ThermoML archive (doi:10.1021/je200673a)",
  "test": "Molar enthalpy of transition or fusion",
  "conditions": "Crystal; Adiabatic calorimetry",
  "note": "± gives the expanded uncertainty stated by the source.",
  "data": [
    {"molecule": "C(#Cc1ccccc1)c1ccccc1", "note": "[1,2-diphenylethyne]", "values": [
      {"measurement": "Molar enthalpy of transition or fusion", "value": "21.04 ± 0.19", "unit": "kJ/mol"}
    ]}
  ]
}
